# Source: publication PMC6368365, “Didehydro-Cortistatin A Inhibits HIV-1 by Specifically Binding to the Unstructured Basic Region of Tat” (mBio, 2019)
# Legend:
# Tat-TAR interaction = Tat-TAR interaction (Human immunodeficiency virus type 1 group M subtype B, UniProt P69697); experiment: EMSA of full-length Tat with TAR; type: biochemical, HIV-1; set-up: pTatC6H-1 (NIH AIDS Reagent Program) plasmid encoding C-terminal 6xHistidine Tat1-86 (HXB3, subtype B); made in house; host or cells: E. coli BL21 (plasmid pTatC6H-1, NIH AIDS Reagent Program); conditions: radiolabeled TAR
# Source text: Tat amplifies viral mRNA expression by binding through its basic domain to TAR, the 5′-terminal region stem-bulge-loop structure of HIV mRNAs, and recruits several cofactors to the viral promoter to promote transcriptional elongation. We investigated whether dCA could compete with TAR for Tat binding. For this purpose, we performed EMSA with radiolabeled TAR and recombinant Tat in the presence or absence of dCA (Fig. 6A).
# EMSA with full-length Tat, a protocol similar to that of Das et al. was performed ([60]). Details on the EMSA with Tat’s basic peptide are provided in Text S1.
# EMSA With full-length Tat: similar protocol was performed as in Das et al. (60). With Tat’s basic peptide: the 59-nucleotides TAR RNA was prepared by in vitro T7 RNA polymerase transcription according to Maxiscript kit manufacturer’s instructions (Ambion). The radiolabeled RNA was purified by urea gel followed by phenol-chloroform extraction. Binding reaction mixture (25 µL of 10 mM Tris HCL pH 7.5, NaCl 70 mM, EDTA 0.2 mM, NP40 0.01 %, Glycerol 5 % and tRNA 100 ng/µL) contained traces of radiolabeled TAR RNA and basic peptide (Pep B, residues 45-59) (or peptide C “Pep C”, residues 69-83, as negative control) in combination or not with compounds or cold TAR. The mixture was incubated for 10 min at room temperature (RT). […]
# Pep B-TAR interaction = molecular target: T1, Pep B-TAR interaction (Human immunodeficiency virus type 1 group M subtype B, UniProt P20879); experiment: EMSA of Tat's basic peptide (Pep B) with TAR; type: biochemical, HIV-1; conditions: Tat basic peptide residues 45 to 59
# T1 construct: Pep B is a peptide encompassing the basic domain of HIV Tat (^45ISYGRKKRRQRRRAP^59)
# Source text: FIG 6 dCA binding to Tat disrupts Tat-TAR interaction. (A) EMSA of full-length Tat with TAR in the presence of dCA. Raltegravir (Ralt.) and deleted bulge TAR (ΔTAR) were used as negative controls. Data are representative of n = 3 independent experiments. (B) EMSA of Tat’s basic domain with TAR in the presence of increasing concentrations of dCA to Tat’s basic peptide. Pep B is a peptide encompassing the basic domain of HIV Tat (^45ISYGRKKRRQRRRAP^59). Pep C (^69LSKQPASQPRGDPTG^83) and unlabeled or cold TAR (TARc) were used as negative controls. Neomycin, which binds to Tat and TAR, was used as a positive control. Ratios of compounds (or TARc) concentrations to peptide are shown. Data are representative of n = 3 independent experiments. […] Shown are ITC results from binding of dCA (left) or Tat peptide (right) to TAR at 25°C. […] For the lower plots, results were converted to molar heats and plotted against the molar ratio of dCA or peptide to RNA. Data are representative of n = 2 independent experiments. (D) Tat-TAR interaction blocked by dCA in HeLa-CD4-LTR-Luc cells in vivo. Cells transfected with Tat or Tat Mut (arginine residues mutated to alanine in Tat’s basic domain) were incubated with DMSO or the indicated compounds (25 nM). Forty-eight hours later, cells were either lysed to determine the luciferase activity or cross-linked for ChIP assays. Luciferase activity was determined relative to protein concentration (Bradford assay) (Fig. S9A). Western blotting was performed to verify the amount of Tat under each condition (Fig. S9B). ChIP of Tat was followed by qRT-PCR of TAR DNA. The results are presented as percentage of input. The mean ± SEM is represented. Data are representative of n = 3 independent experiments. Statistical significance was determined using one-way ANOVA with post hoc Tukey’s test with 3 technical replicates. ns, not significant; ***, P < 0.0001.
# We also performed the same experiment with a peptide encompassing the basic domain of Tat (Pep B; residues 45 to 59) and dCA.
# EMSA With full-length Tat: similar protocol was performed as in Das et al. (60). […]
# Chain of Tat-TAR interaction (P69697 whole entry, the tested form may be a part): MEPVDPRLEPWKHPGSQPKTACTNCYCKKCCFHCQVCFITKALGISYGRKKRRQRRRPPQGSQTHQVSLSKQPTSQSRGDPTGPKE
smiles,measurement,setting,value
"CN(C)C1CC23CCC4(O2)C(=CCC2(C)C(c5ccc6ccncc6c5)=CCC24)C=C3C(O)C1O (stereo not shown) [dCA, didehydro-cortistatin A]",inhibition of Tat-TAR interaction (EMSA),Tat-TAR interaction,inhibited the interaction of Tat with TAR in a dose-responsive manner
same,inhibition of Pep B-TAR interaction (EMSA),Pep B-TAR interaction,inhibited the interaction of Pep B with TAR in a dose-dependent manner
"Cc1nnc(C(=O)NC(C)(C)c2nc(C(=O)NCc3ccc(F)cc3)c(O)c(=O)n2C)o1 [raltegravir, reference compound]",inhibition of Tat-TAR interaction (EMSA),Tat-TAR interaction,no inhibitory activity
same,inhibition of Pep B-TAR interaction (EMSA),Pep B-TAR interaction,did not compete
